17 compounds from US20240343733A1, “COMPOUNDS FOR TARGETING DEGRADATION OF IRAK4 PROTEINS” (BIOGEN MA INC., priority 2021, published 2024) can be followed below.

The target in the first experiment is T1, IRAK4 (Homo sapiens, UniProt Q9NWZ3).
T1 construct: 293Tcells expressing HiBiT-tagged IRAK4 were then added into 384-well plates
T1 sequence (Q9NWZ3 1-460): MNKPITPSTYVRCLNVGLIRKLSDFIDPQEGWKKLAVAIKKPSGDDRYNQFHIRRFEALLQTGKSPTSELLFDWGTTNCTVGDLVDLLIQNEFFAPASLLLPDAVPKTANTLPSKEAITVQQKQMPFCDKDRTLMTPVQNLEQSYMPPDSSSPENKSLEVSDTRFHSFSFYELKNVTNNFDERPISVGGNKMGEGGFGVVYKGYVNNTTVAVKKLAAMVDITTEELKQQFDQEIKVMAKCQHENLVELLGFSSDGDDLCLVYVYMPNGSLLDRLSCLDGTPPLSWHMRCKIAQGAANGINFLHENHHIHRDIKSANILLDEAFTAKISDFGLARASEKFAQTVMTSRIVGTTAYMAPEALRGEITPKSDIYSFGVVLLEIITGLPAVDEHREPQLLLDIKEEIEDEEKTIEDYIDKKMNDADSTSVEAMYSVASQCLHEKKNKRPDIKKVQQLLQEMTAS
As to the kind of experiment: IRAK4 Degradation Assay, HiBiT Method. The class given is cell-based. Particulars: 293T cells expressing HiBiT-tagged IRAK4, 6 hours. In a few lines:
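Luminescent read-out with Nano-Glo HiBiT lytic reagent after 6 h compound exposure at 37 °C. Cells were HiBiT-IRAK4 knock-in 293T (C-terminal tag), 10,000 per well. Compounds ran as 11-point half-log dilutions from […] highest dose, duplicate wells; DMSO served as negative control.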
On the technique in general: With HiBiT, luminescence reflects the tagged protein that the partner subunit can reach.
On to `Cc1cnc2c(NC(=O)c3cc4cn([C@H]5CC[C@H](CN6CCC(c7ccc(C8CCC(=O)NC8=O)cc7F)CC6)CC5)nc4cc3OC(C)C)cnn2c1` (some centres unmarked) [Example 114, 2-((1r,4r)-4-((4-(4-(2,6-dioxopiperidin-3-yl)-2-fluorophenyl)piperidin-1-yl)methyl)cyclohexyl)-6-isopropoxy-N-(6-methylpyrazolo[1,5-a]pyrimidin-3-yl)-2H-indazole-5-carboxamide], for which the DC50 (in general, the concentration giving 50% degradation) is 10 to 100 nM.

The compound `CC(C)Oc1cc2nc(C3CCN(CC(=O)N4CCC(c5ccc(NC6CCC(=O)NC6=O)cc5)CC4)CC3)cn2cc1C(=O)Nc1cccc(C(F)F)n1` (centres unmarked) [Example 105, N-[6-(difluoromethyl)-2-pyridyl]-2-[1-[2-[4-[4-[(2,6-dioxo-3-piperidyl)amino]phenyl]-1-piperidyl]-2-oxo-ethyl]-4-piperidyl]-7-isopropoxy-imidazo[1,2-a]pyridine-6-carboxamide] came in with a DC50 of 10 to 100 nM.

`CC(C)Oc1cc2nn(C3CCN(C(=O)CC4CCN(c5ccc(C6CCC(=O)NC6=O)cn5)CC4)CC3)cc2cc1C(=O)Nc1cnn2cccnc12` (centres unmarked) [Example 147, 2-(1-(2-(1-(5-(2,6-dioxopiperidin-3-yl)pyridin-2-yl)piperidin-4-yl)acetyl)piperidin-4-yl)-6-isopropoxy-N-(pyrazolo[1,5-a]pyrimidin-3-yl)-2H-indazole-5-carboxamide] yielded a half-maximal degradation concentration (DC50) of less than 10 nM.

The compound `CC(C)Oc1cc2nc([C@H]3CC[C@H](CN4CCC(c5ccc(C6CCC(=O)NC6=O)cc5)CC4)CC3)cn2cc1C(=O)Nc1cccc(C(F)(F)F)n1` (some centres unmarked) [Example 4, 2-[4-[[4-[4-(2,6-dioxo-3-piperidyl)phenyl]-1-piperidyl]methyl]cyclohexyl]-7-isopropoxy-N-[6-(trifluoromethyl)-2-pyridyl]imidazo[1,2-a]pyridine-6-carboxamide] displayed a DC50 of 500 to 1000 nM.

Take `CC(C)Oc1cc2nc(C3CCN(C(=O)CC4CC5(C4)CN(c4ccc(C6CCC(=O)NC6=O)cn4)C5)CC3)cn2cc1C(=O)Nc1cccn([C@H]2C[C@H]2F)c1=O` (stereo partly drawn) [Example 183, 2-(1-(2-(2-(5-(2,6-dioxopiperidin-3-yl)pyridin-2-yl)-2-azaspiro[3.3]heptan-6-yl)acetyl)piperidin-4-yl)-N-(1-((1S,2R)-2-fluorocyclopropyl)-2-oxo-1,2-dihydropyridin-3-yl)-7-isopropoxyimidazo[1,2-a]pyridine-6-carboxamide]: the DC50 is less than 10 nM.

In turn, `CC(C)Oc1cc2nn([C@H]3CC[C@H](CN4CCOC[C@H]4Cc4ccc(OC5CCC(=O)NC5=O)cc4)CC3)cc2cc1C(=O)Nc1cccn(C2CC2)c1=O` (stereo partly drawn) [Example 127, N-(1-cyclopropyl-2-oxo-1,2-dihydropyridin-3-yl)-2-((S,4r)-4-(((3S)-3-(4-((2,6-dioxopiperidin-3-yl)oxy)benzyl)morpholino)methyl)cyclohexyl)-6-isopropoxy-2H-indazole-5-carboxamide] gave a DC50 of 10 to 100 nM.

The compound `CC(C)Oc1cc2nc([C@H]3CC[C@H](CN4CC[C@H](c5ccc6c(N7CCC(=O)NC7=O)nn(C)c6c5)[C@H](O)C4)CC3)cn2cc1C(=O)Nc1cccn([C@H]2C[C@H]2F)c1=O` [Example 171, 2-((1S,4S)-4-(((3S,4R)-4-(3-(2,4-dioxotetrahydropyrimidin-1(2H)-yl)-1-methyl-1H-indazol-6-yl)-3-hydroxypiperidin-1-yl)methyl)cyclohexyl)-N-(1-((1S,2R)-2-fluorocyclopropyl)-2-oxo-1,2-dihydropyridin-3-yl)-7-isopropoxyimidazo[1,2-a]pyridine-6-carboxamide] displayed a DC50 of less than 10 nM.

Compound `CC(C)Oc1cc2nc(C3CCN(C(=O)CC4CCN(c5ccc6c([C@@H]7CCC(=O)NC7=O)nn(C)c6c5)CC4)CC3)cn2cc1C(=O)Nc1cccc(C(F)F)n1` [Example 92, (S)—N-(6-(difluoromethyl)pyridin-2-yl)-2-(1-(2-(1-(3-(2,6-dioxopiperidin-3-yl)-1-methyl-1H-indazol-6-yl)piperidin-4-yl)acetyl)piperidin-4-yl)-7-isopropoxyimidazo[1,2-a]pyridine-6-carboxamide] registered a DC50 of 10 to 100 nM.

For `CC(C)Oc1cc2nn(C3CCN(C(=O)CN4CCC(c5ccc(NC6CCC(=O)NC6=O)cc5)CC4)CC3)cc2cc1C(=O)Nc1cccc(C(F)(F)F)n1` (centres unmarked) [Example 60, 2-(1-(2-(4-(4-((2,6-dioxopiperidin-3-yl)amino)phenyl)piperidin-1-yl)acetyl)piperidin-4-yl)-6-isopropoxy-N-(6-(trifluoromethyl)pyridin-2-yl)-2H-indazole-5-carboxamide], the half-maximal degradation concentration (DC50) was in the range of 100 to 500 nM.

Consider `CC(C)Oc1cc2nn(C3CCN(C(=O)CC4CCN(c5ncc(C6CCC(=O)NC6=O)cc5F)CC4)CC3)cc2cc1C(=O)Nc1cccn([C@H]2C[C@H]2F)c1=O` (stereo partly drawn) [Example 151, 2-(1-(2-(1-(5-(2,6-dioxopiperidin-3-yl)-3-fluoropyridin-2-yl)piperidin-4-yl)acetyl)piperidin-4-yl)-N-(1-((1S,2R)-2-fluorocyclopropyl)-2-oxo-1,2-dihydropyridin-3-yl)-6-isopropoxy-2H-indazole-5-carboxamide], for which the DC50 was less than 10 nM.

For the compound `CC(C)Oc1cc2nc(C3(C)CCN(CC(=O)N4CCC(c5ccc(NC6CCC(=O)NC6=O)cc5)CC4)CC3)cn2cc1C(=O)Nc1cccc(C(F)(F)F)n1` (centres unmarked) [Example 95, 2-[1-[2-[4-[4-[(2,6-dioxo-3-piperidyl)amino]phenyl]-1-piperidyl]-2-oxo-ethyl]-4-methyl-4-piperidyl]-7-isopropoxy-N-[6-(trifluoromethyl)-2-pyridyl]imidazo[1,2-a]pyridine-6-carboxamide], the DC50 was in the range of 100 to 500 nM.

`CC(C)Oc1cc2nc(C3CCN(CC(=O)N4CCC(c5ccc(C6CCC(=O)NC6=O)cc5)CC4)CC3)cn2cc1C(=O)Nc1cccc(C(F)F)n1` (centres unmarked) [Example 99, N-[6-(difluoromethyl)-2-pyridyl]-2-[1-[2-[4-[4-(2,6-dioxo-3-piperidyl)phenyl]-1-piperidyl]-2-oxo-ethyl]-4-piperidyl]-7-isopropoxy-imidazo[1,2-a]pyridine-6-carboxamide] displayed a DC50 of 10 to 100 nM.

On to `CC(C)Oc1cc2nc([C@H]3CC[C@H](CN4CC5(CCN(c6ncc(N7CCC(=O)NC7=O)cc6F)CC5)C4)CC3)cn2cc1C(=O)Nc1cnn2cccnc12` [Example 181, 2-((1r,4r)-4-((7-(5-(2,4-dioxotetrahydropyrimidin-1(2H)-yl)-3-fluoropyridin-2-yl)-2,7-diazaspiro[3.5]nonan-2-yl)methyl)cyclohexyl)-7-isopropoxy-N-(pyrazolo[1,5-a]pyrimidin-3-yl)imidazo[1,2-a]pyridine-6-carboxamide], for which the half-maximal degradation concentration (DC50) was less than 10 nM.

With `CC(C)Oc1cc2nc(C3CCC(CN4CCC(c5ccc(NC6CCC(=O)NC6=O)cc5F)CC4)CC3)cn2cc1C(=O)Nc1cccc(C(F)(F)F)n1` (centres unmarked) [Example 1, 2-[4-[[4-[4-[(2,6-dioxo-3-piperidyl)amino]-2-fluoro-phenyl]-1-piperidyl]methyl]cyclohexyl]-7-isopropoxy-N-[6-(trifluoromethyl)-2-pyridyl]imidazo[1,2-a]pyridine-6-carboxamide], the DC50 is 100 to 500 nM.

For `CC(C)Oc1cc2nc(C3CCN(CC(=O)N4CCC(c5cc(F)c(C6CCC(=O)NC6=O)cc5F)CC4)CC3)cn2cc1C(=O)Nc1cccc(C(F)F)n1` (centres unmarked) [Example 97, N-[6-(difluoromethyl)-2-pyridyl]-2-[1-[2-[4-[4-(2,6-dioxo-3-piperidyl)-2,5-difluoro-phenyl]-1-piperidyl]-2-oxo-ethyl]-4-piperidyl]-7-isopropoxy-imidazo[1,2-a]pyridine-6-carboxamide], the DC50 lay within 10 to 100 nM.

`CC(C)Oc1cc2nc([C@H]3CC[C@H](CN4CCC(c5cccc6c5n(C)c(=O)n6C5CCC(=O)NC5=O)CC4)CC3)cn2cc1C(=O)Nc1cccc(C(F)(F)F)n1` (some centres unmarked) [Example 3, 2-[4-[[4-[1-(2,6-dioxo-3-piperidyl)-3-methyl-2-oxo-benzimidazol-4-yl]-1-piperidyl]methyl]cyclohexyl]-7-isopropoxy-N-[6-(trifluoromethyl)-2-pyridyl]imidazo[1,2-a]pyridine-6-carboxamide] gave a DC50 of 100 to 500 nM.

The target in a further experiment is T2, IKZF1 (Homo sapiens, UniProt Q13422).
T2 construct: endogenously expressing IKZF1 with HiBiT fusion tag via CRISPR
T2 sequence (Q96SW2 whole entry partner, the tested form may be a part): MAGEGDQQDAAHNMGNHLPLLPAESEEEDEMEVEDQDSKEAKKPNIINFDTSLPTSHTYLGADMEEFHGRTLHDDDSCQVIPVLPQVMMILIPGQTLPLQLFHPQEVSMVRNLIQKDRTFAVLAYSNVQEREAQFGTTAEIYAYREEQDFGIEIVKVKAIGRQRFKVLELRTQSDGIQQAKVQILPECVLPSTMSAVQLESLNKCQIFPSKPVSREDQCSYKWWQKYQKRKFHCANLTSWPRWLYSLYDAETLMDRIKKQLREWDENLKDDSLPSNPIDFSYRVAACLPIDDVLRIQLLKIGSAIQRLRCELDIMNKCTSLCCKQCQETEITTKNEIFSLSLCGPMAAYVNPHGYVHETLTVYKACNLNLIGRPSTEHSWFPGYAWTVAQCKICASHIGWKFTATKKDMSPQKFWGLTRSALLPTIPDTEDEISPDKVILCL
T2 sequence (Q16531 whole entry partner, the tested form may be a part): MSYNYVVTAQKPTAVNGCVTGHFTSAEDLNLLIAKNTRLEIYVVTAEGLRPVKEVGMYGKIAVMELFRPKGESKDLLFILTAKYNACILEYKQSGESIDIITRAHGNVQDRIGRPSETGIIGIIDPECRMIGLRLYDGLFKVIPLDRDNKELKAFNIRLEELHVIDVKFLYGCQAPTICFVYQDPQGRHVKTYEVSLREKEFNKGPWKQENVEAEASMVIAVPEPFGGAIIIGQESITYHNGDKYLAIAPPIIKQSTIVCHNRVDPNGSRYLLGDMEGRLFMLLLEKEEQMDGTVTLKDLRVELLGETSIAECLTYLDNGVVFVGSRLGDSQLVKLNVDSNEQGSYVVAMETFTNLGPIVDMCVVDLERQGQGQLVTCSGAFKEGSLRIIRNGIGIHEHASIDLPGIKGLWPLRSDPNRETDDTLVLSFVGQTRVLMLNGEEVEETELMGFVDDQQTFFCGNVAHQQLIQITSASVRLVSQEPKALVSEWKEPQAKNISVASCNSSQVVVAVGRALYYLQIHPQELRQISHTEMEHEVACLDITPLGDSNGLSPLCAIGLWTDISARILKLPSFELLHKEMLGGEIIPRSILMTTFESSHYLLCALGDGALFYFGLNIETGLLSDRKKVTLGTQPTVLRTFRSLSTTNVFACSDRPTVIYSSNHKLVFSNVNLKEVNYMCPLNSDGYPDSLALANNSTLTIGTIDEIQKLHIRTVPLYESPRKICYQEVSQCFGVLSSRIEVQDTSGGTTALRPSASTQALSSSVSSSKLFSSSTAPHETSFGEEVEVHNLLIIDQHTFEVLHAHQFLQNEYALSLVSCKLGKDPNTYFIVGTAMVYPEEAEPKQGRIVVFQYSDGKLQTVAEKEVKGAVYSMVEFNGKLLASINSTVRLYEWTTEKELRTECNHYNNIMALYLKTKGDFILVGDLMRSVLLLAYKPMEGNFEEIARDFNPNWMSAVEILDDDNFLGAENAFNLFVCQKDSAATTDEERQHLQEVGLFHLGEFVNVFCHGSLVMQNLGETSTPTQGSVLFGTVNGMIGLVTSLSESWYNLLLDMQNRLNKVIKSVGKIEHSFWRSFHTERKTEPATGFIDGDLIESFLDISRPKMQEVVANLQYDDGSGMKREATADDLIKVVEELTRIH
T2 sequence (Q13422 whole entry, the tested form may be a part): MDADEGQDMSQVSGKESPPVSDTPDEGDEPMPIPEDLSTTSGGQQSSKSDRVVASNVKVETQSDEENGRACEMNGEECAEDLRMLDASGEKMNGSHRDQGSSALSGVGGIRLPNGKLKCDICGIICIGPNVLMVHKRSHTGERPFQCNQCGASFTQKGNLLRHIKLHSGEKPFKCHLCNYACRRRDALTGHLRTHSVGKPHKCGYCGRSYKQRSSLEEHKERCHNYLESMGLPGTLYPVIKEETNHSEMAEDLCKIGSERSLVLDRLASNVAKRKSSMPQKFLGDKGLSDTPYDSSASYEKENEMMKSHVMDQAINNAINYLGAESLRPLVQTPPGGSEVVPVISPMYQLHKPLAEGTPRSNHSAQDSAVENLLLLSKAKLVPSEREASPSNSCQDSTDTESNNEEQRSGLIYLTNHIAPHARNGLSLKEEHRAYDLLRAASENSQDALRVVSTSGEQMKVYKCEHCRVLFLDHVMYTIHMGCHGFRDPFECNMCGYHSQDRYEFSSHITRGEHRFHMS
Kind of experiment: IKZF1 Degradation Assay, HiBiT Method. The experiment is classed as cell-based. Particulars: NCIH929 cells expressing HiBiT-tagged IKZF1, 6 hours, top concentration 10 μM. The protocol: Assay 2. IKZF1 Degradation Assay, HiBiT Method
Selected compounds of this disclosure were tested in an IKZF1 degradation assay using the HiBiT Method.
RPMI no-phenol red medium and fetal bovine serum (FBS) were purchased from Gibco (Grand Island, NY, USA). Nano-Glo® HiBiT Lytic Assay System was purchased from Promega (Madison, WI, USA). […] Cell culture flasks and 384-well microplates were acquired from VWR (Radnor, PA, USA).
IKZF1 degradation was determined based on quantification of luminescent signal using Nano-Glo® HiBiT Lytic Assay kit. […] NCIH929 cells expressing HiBiT-tagged IKZF1 were added into 384-well plates in RPMI medium containing 10% FBS and 0.05 mM 2-mercaptoethanol at a cell density of 15000 cells per well. The plates were kept at 37° C. with 5% CO2 for 6 hours. Cells treated in the absence of the test compound were the negative control and wells containing media only were the positive control. After 6-hour incubation, Nano-Glo® HiBiT Lytic Assay reagents were added to the designated wells. Luminescence was acquired on EnVision® Multilabel Reader (PerkinElmer, Santa Clara, CA, USA).
On to `Cc1cnc2c(NC(=O)c3cc4cn([C@H]5CC[C@H](CN6CCC(c7ccc(C8CCC(=O)NC8=O)cc7F)CC6)CC5)nc4cc3OC(C)C)cnn2c1` (some centres unmarked) [Example 114, 2-((1r,4r)-4-((4-(4-(2,6-dioxopiperidin-3-yl)-2-fluorophenyl)piperidin-1-yl)methyl)cyclohexyl)-6-isopropoxy-N-(6-methylpyrazolo[1,5-a]pyrimidin-3-yl)-2H-indazole-5-carboxamide], for which the DC50 is greater than 10000 nM.

As for `CC(C)Oc1cc2nc(C3CCN(CC(=O)N4CCC(c5ccc(NC6CCC(=O)NC6=O)cc5)CC4)CC3)cn2cc1C(=O)Nc1cccc(C(F)F)n1` (centres unmarked) [Example 105, N-[6-(difluoromethyl)-2-pyridyl]-2-[1-[2-[4-[4-[(2,6-dioxo-3-piperidyl)amino]phenyl]-1-piperidyl]-2-oxo-ethyl]-4-piperidyl]-7-isopropoxy-imidazo[1,2-a]pyridine-6-carboxamide], the DC50 is greater than 10000 nM.

Turning to `CC(C)Oc1cc2nn(C3CCN(C(=O)CC4CCN(c5ccc(C6CCC(=O)NC6=O)cn5)CC4)CC3)cc2cc1C(=O)Nc1cnn2cccnc12` (centres unmarked) [Example 147, 2-(1-(2-(1-(5-(2,6-dioxopiperidin-3-yl)pyridin-2-yl)piperidin-4-yl)acetyl)piperidin-4-yl)-6-isopropoxy-N-(pyrazolo[1,5-a]pyrimidin-3-yl)-2H-indazole-5-carboxamide], the DC50 was greater than 10000 nM.

Staying with this experiment, now noted: NCIH929.11 cells, 6 hours.
Take `Nc1cccc2c1C(=O)N(C1CCC(=O)NC1=O)C2=O` (centres unmarked) [pomalidomide, reference compound]: the “degradation of IKZF1” value stood at 90%.
